Assay results from patent US11000512B2, “Use of DDX3 inhibitors as antiproliferative agents” (AZIENDA OSPEDALIERA UNIVERSITARIA SENESE, priority 2016, dated 2021).
pIC50: −log10 of the molar value.

Experiments:
[1] = Parallel Artificial Membrane Permeability Assay (PAMPA), GI; assay type: in vitro ADME; settings: GI (intestinal) PAMPA, value in brackets
Description: Parallel Artificial Membrane Permeability Assay (PAMPA). Donor solution (0.5 mM) was prepared by diluting 1 mM dimethylsulfoxide (DMSO) compound stock solution using phosphate buffer (pH 7.4, 0.025 M). Filters were coated with 5 μL of a 1% (w/v) dodecane solution of phosphatidylcholine prepared from CHCl3 solution 10% w/v, for intestinal permeability. Donor solution (150 μL) was added to each well of the filter plate. To each well of the acceptor plate were added 300 μL of solution (50% DMSO in phosphate buffer). All compounds were tested in three different plates on different days. The sandwich was incubated for 5 h at room temperature under gentle shaking. After the incubation time, the plates were separated, and samples were taken from both receiver and donor sides and analyzed using LC with UV detection at 280 nm.
LC analysis were performed with a Varian Prostar HPLC system (Varian Analytical Instruments, USA) equipped with a binary pump with a manual injection valve and model Prostar 325 UV-VIS Detector. Chromatographic separations were conducted using a Polaris C18-A column (150-4.6 mm, 5 μm particle size) at a flow rate of 0.8 mL min^−1 with a mobile phase composed of 60% ACN/40% H2O.
Permeability (Papp) for PAMPA was calculated according to the following equation, obtained from Wohnsland and Faller and Sugano et al. equation with some modification in order to obtain permeability values in cm s^−1,
where VA is the volume in the acceptor well, VD is the volume in the donor well (cm^3), A is the “effective area” of the membrane (cm^2), t is the incubation time (s) and r the ratio between drug concentration in the acceptor and equilibrium concentration of the drug in the total volume (VD+VA). Drug concentration is estimated by using the peak area integration.
Membrane retentions (%) were calculated according to the following equation: […]
where r is the ratio between drug concentration in the acceptor and equilibrium concentration, D, A, and Eq represented drug concentration in the donor, acceptor and equilibrium solution, respectively.

[2] = tested on: Human Prostate cell line derived from brain metastasis (DU-145); experiment: Cytotoxicity test / growth inhibition, DU-145; assay type: cell-based; settings: DU-145, 48 hours, cell counting
Description: (§1) Cells were purchased from American Type Culture Collection (ATCC, Manassas, Va., USA). The LNCaP (ATCC® CRL-1740™), A549 (ATCC® CCL-185™), MDA-MB-231 (ATCC® CRM-HTB-26™), 22Rv1 (ATCC® CRL-2505™), HCT-116 (ATCC® CCL-247™) and PC3 (ATCC® CRL-1435™) cells were maintained in Roswell Park Memorial Institute 1640 medium (RPMI; Euroclone, ECB9006L) supplemented with 10% fetal bovine serum (Euroclone; ECS0180L), 2 mM L-glutamine, 100 units/mL penicillin and […] streptomycin at 37° C. in an atmosphere of 5% CO2/air. DU145 (ATCC® HTB-81™), and DAOY (ATCC® HTB-186™) cells were maintained in Eagle's minimal essential medium (EMEM; Euro-clone, ECM0445L) supplemented with 10% fetal bovine serum (Euroclone; ECS0180L), 2 mM L-glutamine, 100 units/ml penicillin and […] streptomycin at 37° C. in an atmosphere of 5% CO2/air. SH-SY5Y (ATCC® CRL-2266™), DBRTG (ATCC® CRL-2020™), HeLa (ATCC® CCL-2™), HN6 cells (kindly provided by Dr Silvio Gutkind, UCSD Medical Center, Moores Cancer Center USA, Chen J. J et al, Oncotarget 2013, 4, 206-217)), U2OS (ATCC® HTB-96™), RD18 cells (kindly provided by Dr P. Boccuni Memorial Sloan-Kettering Cancer Center, New York, USA Vella S. et al. Clin Epigenetics. 2015 6; 7-82), cells were maintained in Dulbecco's modified Eagle's medium (DMEM; Euroclone, ECB7501L) supplemented with 10% fetal bovine serum (Euroclone; ECS0180L), 2 mM L-glutamine, 100 units/ml penicillin and 100 mg/mL streptomycin at 37° C. in an atmosphere of 5% CO2/air.
(§2) Cell lines were seeded at appropriate densities in 2 mL growth medium in 6-wells culture plates 24 hours before the treatment with the inhibitor compounds. After 24 h the culture medium was removed and fresh medium containing increasing concentrations of chemical compounds was added to cells. The fixed final concentrations were: 0.1 μM, 1 μM, 10 μM, 100 μM. DMSO was the vehicle used for dilution of the compounds and its final concentration on cells was less than 0.2%. Medium-only containing wells were included as controls. Cells were incubated 48 hours with drugs and, then, cell viability was evaluated.
(§3) Cells were detached from each well of the 6-wells plates with 300 μL of Trypsin and suspended in culture medium to a final volume of 1 mL. Cell viability was then assessed through cell counting. Cells were diluted in 1:50 ratio of an isotonic buffered diluent, Isoton (Backman Coulter), following the manufacturer's instructions, and counted using an automated cell counter (Z2 series Coulter Counter, Beckman Coulter). Each cell count was performed in three replicates. The values corresponding to the relative survival of cells in presence of each chemical compound at single concentrations were normalized to the untreated controls. […]

[3] = tested on: Human Prostate cancer cell line (PC3); experiment: Cytotoxicity test / growth inhibition, PC3; assay type: cell-based; settings: PC3, 48 hours, cell counting
Description: as §1, with “2015 6; 7-82), cells were maintained in Dulbecco's modified Eagle's medium (DMEM; Euroclone, ECB7501L) supplemented with 10% fetal bovine serum (Euroclone; ECS0180L), 2 mM L-glutamine, 100 units/ml penicillin and 100 mg/mL streptomycin at 37° C. in an atmosphere of 5% CO2/air.” left out
(§4) Cell lines were seeded at appropriate densities in 2 mL growth medium in 6-wells culture plates 24 hours before the treatment with the inhibitor compounds. […] Cells were incubated 48 hours with drugs and, then, cell viability was evaluated.
(§5) Cells were detached from each well of the 6-wells plates with 300 μL of Trypsin and suspended in culture medium to a final volume of 1 mL. Cell viability was then assessed through cell counting. Cells were diluted in 1:50 ratio of an isotonic buffered diluent, Isoton (Backman Coulter), following the manufacturer's instructions, and counted using an automated cell counter (Z2 series Coulter Counter, Beckman Coulter). […]

[4] = tested on: Human breast adenocarcinoma cell line (MDA-MB-231); experiment: Cytotoxicity test / growth inhibition, MDA-MB-231; assay type: cell-based; settings: MDA-MB-231, 48 hours, cell counting
Description: as §1, §2
(§6) Cells were detached from each well of the 6-wells plates with 300 μL of Trypsin and suspended in culture medium to a final volume of 1 mL. Cell viability was then assessed through cell counting. Cells were diluted in 1:50 ratio of an isotonic buffered diluent, Isoton (Backman Coulter), following the manufacturer's instructions, and counted using an automated cell counter (Z2 series Coulter Counter, Beckman Coulter). Each cell count was performed in three replicates. The values corresponding to the relative survival of cells in presence of each chemical compound at single concentrations were normalized to the untreated controls. Then, the half maximal inhibitory concentration (IC50) value, which represent the drug concentration that is required to induce a 50% growth inhibition in vitro, was calculated with GraphPad Prism 6.0 software using the best fitting sigmoid curve.

[5] = tested on: Human cervical carcinoma cell line (HeLa); experiment: Cytotoxicity test / growth inhibition, HeLa; assay type: cell-based; settings: 48 hours, cell counting
Description: as §1, with “2015 6; 7-82), cells were maintained in Dulbecco's modified Eagle's medium (DMEM; Euroclone, ECB7501L) supplemented with 10% fetal bovine serum (Euroclone; ECS0180L), 2 mM L-glutamine, 100 units/ml penicillin and 100 mg/mL streptomycin at 37° C. in an atmosphere of 5% CO2/air.” left out
as §4, §5

[6] = tested on: Human adenocarcinomic alveolar basal epithelial cell line (A549); experiment: Cytotoxicity test / growth inhibition, A549; assay type: cell-based; settings: A549, 48 hours, cell counting
Description: as §1, §2, §6

[7] = tested on: Human colorectal carcinoma cell line (HCT116); experiment: Cytotoxicity test / growth inhibition, HCT116; assay type: cell-based; settings: HCT-116, HCT116, 48 hours, cell counting
Description: as §1, with “2015 6; 7-82), cells were maintained in Dulbecco's modified Eagle's medium (DMEM; Euroclone, ECB7501L) supplemented with 10% fetal bovine serum (Euroclone; ECS0180L), 2 mM L-glutamine, 100 units/ml penicillin and 100 mg/mL streptomycin at 37° C. in an atmosphere of 5% CO2/air.” left out
as §4, §5

[8] = tested on: Human osteosarcoma cell line (U2OS); experiment: Cytotoxicity test / growth inhibition, U2OS; assay type: cell-based; settings: 48 hours, cell counting
Description: as §1, §2, §6

[9] = tested on: Human head and neck squamous carcinoma cell line (HN6); experiment: Cytotoxicity test / growth inhibition, HN6; assay type: cell-based; settings: HN6, 48 hours, cell counting
Description: as §1, §2, §6

[10] = tested on: Human muscle rhabdomyosarcoma cell line (RD18); experiment: Cytotoxicity test / growth inhibition, RD18; assay type: cell-based; settings: RD18, 48 hours, cell counting
Description: (§7) Cells were purchased from American Type Culture Collection (ATCC, Manassas, Va., USA). The LNCaP (ATCC® CRL-1740™), A549 (ATCC® CCL-185™), MDA-MB-231 (ATCC® CRM-HTB-26™), 22Rv1 (ATCC® CRL-2505™), HCT-116 (ATCC® CCL-247™) and PC3 (ATCC® CRL-1435™) cells were maintained in Roswell Park Memorial Institute 1640 medium (RPMI; Euroclone, ECB9006L) supplemented with 10% fetal bovine serum (Euroclone; ECS0180L), 2 mM L-glutamine, 100 units/mL penicillin and […] streptomycin at 37° C. in an atmosphere of 5% CO2/air. […]
as §4, §5

[11] = tested on: Human brain glioblastoma cell line (DBTRG); experiment: Cytotoxicity test / growth inhibition, DBTRG; assay type: cell-based; settings: 48 hours, cell counting
Description: as §7, §4, §5

[12] = tested on: Human medulloblastoma cell line (DAOY); experiment: Cytotoxicity test / growth inhibition, DAOY; assay type: cell-based; settings: 48 hours, cell counting
Description: as §7, §4, §5

[13] = Microsomal Stability Assay (HLM); assay type: in vitro ADME; settings: human liver microsomes, 37° C., 60 min, NADPH-generating system; percentage of not metabolized compound
Excerpt: For the quantification was used an LC-MS system consisted of a Varian apparatus (Varian Inc) including a vacuum solvent degassing unit, two pumps (212-LC), a Triple Quadrupole MSD (Mod. 320-LC) mass spectrometer with ES interface and Varian MS Workstation System Control Vers. 6.9 software. Chromatographic separation was obtained using a Pursuit C18 column (50×2.0 mm) (Varian) with 3 μm particle size and gradient elution: eluent A being ACN and eluent B consisting of water. […] The flow rate was 0.2 mL min^−1 and injection volume was 5 μL. The instrument operated in positive mode and parameters were: detector 1850 V, drying gas pressure 25.0 psi, desolvation temperature 300.0° C., nebulizing gas 40.0 psi, needle 5000 V and shield 600 V. Nitrogen was used as nebulizer gas and drying gas. Collision induced dissociation was performed using Argon as the collision gas at a pressure of 1.8 mTorr in the collision cell. Microsomal Stability Assay. […] The reaction was stopped by cooling on ice and adding 1.0 mL of acetonitrile. The reaction mixtures were then centrifuged, and the parent drug and metabolites were subsequently determined by LC-UV-MS. Chromatographic analysis was performed with an Agilent 1100 LC/MSD VL system (G1946C) (Agilent Technologies, Palo Alto, Calif.) constituted by a vacuum solvent degassing unit, a binary high-pressure gradient pump, an 1100 series UV detector, and an 1100 MSD model VL benchtop mass spectrometer.
Chromatographic separation was obtained using a Varian Polaris C18-A column (150-4.6 mm, 5 μm particle size) and gradient elution: eluent A being ACN and eluent B consisting of water. […] The flow rate was 0.8 mL min^−1 and injection volume was 20 μL.
The Agilent 1100 series mass spectra detection (MSD) single-quadrupole instrument was equipped with the orthogonal spray API-ES (Agilent Technologies, Palo Alto, Calif.). Nitrogen was used as nebulizing and drying gas. The pressure of the nebulizing gas, the flow of the drying gas, the capillary voltage, the fragmentor voltage, and the vaporization temperature were set at 40 psi, 9 L/min, 3000 V, 70 V, and 350° C., respectively. UV detection was monitored at 280 nm. The LC-ESI-MS determination was performed by operating the MSD in the positive ion mode. Spectra were acquired over the scan range m/z 100-1500 using a step size of 0.1 u. The percentage of not metabolized compound was calculated by comparison with reference solutions.

[14] = tested on: Human Prostate Adenocarcinoma cell line (LNCaP); experiment: Cytotoxicity test / growth inhibition, LNCaP; assay type: cell-based; settings: 48 hours, cell counting
Description: as §7, §4, §5

[15] = tested on: Human Prostate carcinoma epithelial cell line (22Rv1); experiment: Cytotoxicity test / growth inhibition, 22Rv1; assay type: cell-based; settings: 22Rv1, 48 hours, cell counting
Description: as §7, §4, §5

[16] = tested on: Human Neuroblastoma cell line (SH-SY5Y); experiment: Cytotoxicity test / growth inhibition, SH-SY5Y; assay type: cell-based; settings: 48 hours, cell counting
Description: as §7, §4, §5

[17] = tested on: Human Glioblastoma cell line (U87); experiment: Cytotoxicity test / growth inhibition, U87; assay type: cell-based; settings: U87, 48 hours, cell counting
Description: as §2, §3

Row | PAMPA GI (RM %) membrane retention [1] | Sability % [13] | Compound | pIC50 [2] | pIC50 [3] | pIC50 [4] | pIC50 [5] | pIC50 [6] | pIC50 [7] | pIC50 [8] | pIC50 [9] | pIC50 [10] | pIC50 [11] | pIC50 [12] | pIC50 [14] | pIC50 [15] | pIC50 [16] | pIC50 [17]
1 | 23.9% |  | CCCCc1cn(-c2ccc(NC(=O)Nc3ccccc3C(F)(F)F)cc2)nn1 [Compound 22a, 1-(4-(4-butyl-1H-1,2,3-triazol-1-yl)phenyl)-3-(2-(trifluoromethyl)phenyl)urea] | 7.00 | 4.59 | 5.85 | 5.20 | 5.85 | 5.41 | 5.38 | 6.10 | 5.49 | 5.24 | 5.48 |  |  |  | 
2 |  | 99% | CCCCc1cn(-c2cccc(S(=O)(=O)Nc3ccccc3C(F)(F)F)c2)nn1 [Compound 64d, 3-(4-butyl-1H-1,2,3-triazol-1-yl)-N-(2-(trifluoromethyl)phenyl)benzenesulfonamide] | 5.52 |  | 4.80 | 4.29 | 4.67 |  |  |  |  |  |  | 4.78 | 4.85 | 4.73 | 4.06
